Molecular target: T1, Recombinant human TPH1 (MBP tagged) (Homo sapiens, UniProt P17752)
T1 construct: cloning full length human TPH1 cDNA in to a bacterial pMAL-c5E expression vector; made in house; host or cells: E. coli BL21 (DE3)
T1 sequence (P17752 1-444): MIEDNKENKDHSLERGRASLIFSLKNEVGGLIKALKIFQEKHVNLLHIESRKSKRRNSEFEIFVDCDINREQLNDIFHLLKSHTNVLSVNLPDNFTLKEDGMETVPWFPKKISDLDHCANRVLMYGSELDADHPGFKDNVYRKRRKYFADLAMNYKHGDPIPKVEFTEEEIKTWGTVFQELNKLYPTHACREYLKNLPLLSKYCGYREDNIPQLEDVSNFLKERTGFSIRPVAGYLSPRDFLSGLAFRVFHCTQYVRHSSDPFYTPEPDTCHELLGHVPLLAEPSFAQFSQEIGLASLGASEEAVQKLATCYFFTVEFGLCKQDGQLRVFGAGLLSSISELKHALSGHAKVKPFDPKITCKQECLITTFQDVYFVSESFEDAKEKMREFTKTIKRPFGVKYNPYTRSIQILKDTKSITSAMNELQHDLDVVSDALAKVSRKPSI
Experiment: TPH1 in vitro inhibition assay (kinetic fluorescence)
Type: biochemical
Settings: read-out: TPH1 Range (TPH1 inhibition IC50)
Outline: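 Final mix: 15 nM MBP-TPH1, 30 μM Trp, 36 μM 6-methyltetrahydropterin, 25 μM ferrous ammonium sulfate, 50 mM MES pH 7.1, 1% DMSO, room temperature.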

| IC50 [nM] | SMILES |
| --- | --- |
| 3000 to 10000 | Nc1nc(NCc2ccccc2N2CCCCC2)nc(N2CCC3(CC2)CNC(C(=O)O)C3)n1 (centres unmarked) [Example 39c, 8-(4-amino-6-((2-(piperidin-1-yl)benzyl)amino)-1,3,5-triazin-2-yl)-2,8-diazaspiro[4.5]decane-3-carboxylic acid] |
| < 50 | Nc1nc(O[C@H](c2ccc(Cl)cc2-n2ncc3ccccc32)C(F)(F)F)cc(N2CCC3(CC2)CN[C@H](C(=O)O)C3)n1 [Example 36c, (S)-8-(2-amino-6-((R)-1-(4-chloro-2-(1H-indazol-1-yl)phenyl)-2,2,2-trifluoroethoxy)pyrimidin-4-yl)-2,8-diazaspiro[4.5]decane-3-carboxylic acid] |
| 300 to 3000 | Nc1nc(NCc2ccccc2N2CCCCC2)cc(N2CCC3(CC2)CN[C@H](C(=O)O)C3)n1 [Example 41a, (S)-8-(2-Amino-6-((2-(piperidin-1-yl)benzyl)amino)pyrimidin-4-yl)-2,8-diazaspiro[4.5]decane-3-carboxylic acid] |
| 300 to 3000 | Cc1cc(Cl)ccc1-c1ccc([C@@H](Oc2cc(N3CCC4(CC3)CN[C@H](C(=O)O)C4)nc(N)n2)C(F)(F)F)cc1 [Example 55cp, (S)-8-(2-amino-6-((R)-1-(4′-chloro-2′-methyl-[1,1′-biphenyl]-4-yl)-2,2,2-trifluoroethoxy)pyrimidin-4-yl)-2,8-diazaspiro[4.5]decane-3-carboxylic acid] |
| < 50 | Cn1ncc2ccc(-c3ccc([C@@H](Oc4cc(N5CCC6(CC5)CN[C@H](C(=O)O)C6)nc(N)n4)C(F)(F)F)cc3)cc21 [Example 55i, (S)-8-(2-amino-6-((R)-2,2,2-trifluoro-1-(4-(1-methyl-1H-indazol-6-yl)phenyl)ethoxy)pyrimidin-4-yl)-2,8-diazaspiro[4.5]decane-3-carboxylic acid] |
| 50 to 300 | CCCOc1ccc(-c2ccc([C@@H](Oc3cc(N4CCC5(CC4)CN[C@H](C(=O)O)C5)nc(N)n3)C(F)(F)F)c(-c3ccccc3)c2)cc1F [Example 54e, (S)-8-(2-amino-6-((R)-2,2,2-trifluoro-1-(3-fluoro-4-propoxy-[1,1′:3′,1″-terphenyl]-4′-yl)ethoxy)pyrimidin-4-yl)-2,8-diazaspiro[4.5]decane-3-carboxylic acid] |
| 50 to 300 | Cc1nn(C)c2ccc(-c3ccc([C@@H](Oc4cc(N5CCC6(CC5)CN[C@H](C(=O)O)C6)nc(N)n4)C(F)(F)F)cc3)cc12 [Example 55x, (S)-8-(2-amino-6-((R)-1-(4-(1,3-dimethyl-1H-indazol-5-yl)phenyl)-2,2,2-trifluoroethoxy)pyrimidin-4-yl)-2,8-diazaspiro[4.5]decane-3-carboxylic acid] |
| 3000 to 10000 | Cc1ccn(-c2cc(Cl)ccc2[C@@H](Oc2cnnc(N3CCC4(CC3)CN[C@H](C(=O)O)C4)c2)C(F)(F)F)n1 [Example 43, (S)-8-(5-((R)-1-(4-chloro-2-(3-methyl-H-pyrazol-1-yl)phenyl)-2,2,2-trifluoroethoxy)pyridazin-3-yl)-2,8-diazaspiro[4.5]decane-3-carboxylic acid] |
| 300 to 3000 | Nc1nc(OCC2C3CC4CC(C3)CC2C4)cc(N2CCC3(CC2)CN[C@H](C(=O)O)C3)n1 (stereo partly drawn) [Example 38, (S)-8-(6-((1r,3r,5S,7S)-adamantan-2-ylmethoxy)-2-aminopyrimidin-4-yl)-2,8-diazaspiro[4.5]decane-3-carboxylic acid] |
| 50 to 300 | Nc1nc(O[C@H](c2ccc(Cl)cc2-n2cnc3ccccc32)C(F)(F)F)cc(N2CCC3(CC2)CN[C@H](C(=O)O)C3)n1 [Example 36b, (S)-8-(6-((R)-1-(2-(1H-benzo[d]imidazol-1-yl)-4-chlorophenyl)-2,2,2-trifluoroethoxy)-2-aminopyrimidin-4-yl)-2,8-diazaspiro[4.5]decane-3-carboxylic acid] |
| < 50 | COc1ccc(-c2ccc([C@@H](Oc3cc(N4CCC5(CC4)CN[C@H](C(=O)O)C5)nc(N)n3)C(F)(F)F)cc2)cc1OC [Example 55q, (S)-8-(2-amino-6-((R)-1-(3′,4′-dimethoxy-[1,1′-biphenyl]-4-yl)-2,2,2-trifluoroethoxy)pyrimidin-4-yl)-2,8-diazaspiro[4.5]decane-3-carboxylic acid] |
| 300 to 3000 | Nc1nc(O[C@H](c2ccc(-c3ccc(Cl)cc3)cc2)C(F)(F)F)cc(N2CCC3(CC2)CN[C@H](C(=O)O)C3)n1 [Example 55cy, (S)-8-(2-amino-6-((R)-1-(4′-chloro-[1,1′-biphenyl]-4-yl)-2,2,2-trifluoroethoxy)pyrimidin-4-yl)-2,8-diazaspiro[4.5]decane-3-carboxylic acid] |

The next lines start with the compound.

| SMILES | IC50 [nM] |
| --- | --- |
| CSc1ccc(-c2ccc([C@@H](Oc3cc(N4CCC5(CC4)CN[C@H](C(=O)O)C5)nc(N)n3)C(F)(F)F)c(-n3ccc(C)n3)c2)cc1 [Example 1b, (S)-8-(2-amino-6-((R)-2,2,2-trifluoro-1-(3-(3-methyl-1H-pyrazol-1-yl)-4′-(methylthio)-[1,1′-biphenyl]-4-yl)ethoxy)pyrimidin-4-yl)-2,8-diazaspiro[4.5]decane-3-carboxylic acid] | < 50 |
| Cc1ccn(-c2cc(-c3ccc(Cl)cc3)ccc2[C@@H](Oc2cc(N3CCC4(CC3)CN[C@H](C(=O)O)C4)nc(N)n2)C(F)(F)F)n1 [Example 1ah, (S)-8-(2-amino-6-((R)-1-(4′-chloro-3-(3-methyl-1H-pyrazol-1-yl)-[1,1′-biphenyl]-4-yl)-2,2,2-trifluoroethoxy)pyrimidin-4-yl)-2,8-diazaspiro[4.5]decane-3-carboxylic acid] | < 50 |
| CCCS(=O)(=O)c1cccc(-c2cc(Cl)ccc2[C@@H](Oc2cc(N3CCC4(CC3)CN[C@H](C(=O)O)C4)nc(N)n2)C(F)(F)F)c1 [Example 34k, (S)-8-(2-amino-6-((R)-1-(5-chloro-3′-(propylsulfonyl)-[1,1′-biphenyl]-2-yl)-2,2,2-trifluoroethoxy)pyrimidin-4-yl)-2,8-diazaspiro[4.5]decane-3-carboxylic acid] | 50 to 300 |
| CCOc1cc(-c2ccc([C@@H](Oc3cc(N4CCC5(CC4)CN[C@H](C(=O)O)C5)nc(N)n3)C(F)(F)F)c(-n3ccc(C)n3)c2)ccc1F [Example 1bg, (S)-8-(2-amino-6-((R)-1-(3′-ethoxy-4′-fluoro-3-(3-methyl-1H-pyrazol-1-yl)-[1,1′-biphenyl]-4-yl)-2,2,2-trifluoroethoxy)pyrimidin-4-yl)-2,8-diazaspiro[4.5]decane-3-carboxylic acid] | < 50 |
| CCOc1ccc(-c2ccc([C@@H](Oc3cc(N4CCC5(CC4)CN[C@H](C(=O)O)C5)nc(C)n3)C(F)(F)F)c(-n3ccc(C)n3)c2)cc1 [Example 29s, (S)-8-(6-((R)-1-(4′-ethoxy-3-(3-methyl-1H-pyrazol-1-yl)-[1,1′-biphenyl]-4-yl)-2,2,2-trifluoroethoxy)-2-methylpyrimidin-4-yl)-2,8-diazaspiro[4.5]decane-3-carboxylic acid] | < 50 |
| CNC(=O)c1ccc(-c2ccc([C@@H](Oc3cc(N4CCC5(CC4)CN[C@H](C(=O)O)C5)nc(N)n3)C(F)(F)F)c(-n3ccc(C)n3)c2)cc1 [Example 1ch, (S)-8-(2-amino-6-((R)-2,2,2-trifluoro-1-(3-(3-methyl-1H-pyrazol-1-yl)-4′-(methylcarbamoyl)-[1,1′-biphenyl]-4-yl)ethoxy)pyrimidin-4-yl)-2,8-diazaspiro[4.5]decane-3-carboxylic acid] | 50 to 300 |
| Nc1nc(O[C@H](c2ccc(Cl)cc2-n2ccc(C3CC3)n2)C(F)(F)F)cc(N2CCC3(CC2)CN[C@H](C(=O)O)C3)n1 [Example 10r, (S)-8-(2-amino-6-((R)-1-(4-chloro-2-(3-cyclopropyl-1H-pyrazol-1-yl)phenyl)-2,2,2-trifluoroethoxy)pyrimidin-4-yl)-2,8-diazaspiro[4.5]decane-3-carboxylic acid] | < 50 |
| Nc1nc(O[C@H](c2ccc(Cl)cc2C2=CCCCC2)C(F)(F)F)cc(N2CCC3(CC2)CN[C@H](C(=O)O)C3)n1 [Example 34by, (S)-8-(2-amino-6-((R)-1-(5-chloro-2′,3′,4′,5′-tetrahydro-[1,1′-biphenyl]-2-yl)-2,2,2-trifluoroethoxy)pyrimidin-4-yl)-2,8-diazaspiro[4.5]decane-3-carboxylic acid] | 50 to 300 |
| Nc1nc(O[C@H](c2ccc(Cl)cc2N2CCCC2=O)C(F)(F)F)cc(N2CCC3(CC2)CN[C@H](C(=O)O)C3)n1 [Example 33, (S)-8-(2-amino-6-((R)-1-(4-chloro-2-(2-oxopyrrolidin-1-yl)phenyl)-2,2,2-trifluoroethoxy)pyrimidin-4-yl)-2,8-diazaspiro[4.5]decane-3-carboxylic acid] | 50 to 300 |
| Nc1nc(O[C@H](c2ccc(Cl)cc2-c2ccc(Cl)c(C(F)(F)F)c2)C(F)(F)F)cc(N2CCC3(CC2)CN[C@H](C(=O)O)C3)n1 [Example 34am, (S)-8-(2-amino-6-((R)-1-(4′,5-dichloro-3′-(trifluoromethyl)-[1,1′-biphenyl]-2-yl)-2,2,2-trifluoroethoxy)pyrimidin-4-yl)-2,8-diazaspiro[4.5]decane-3-carboxylic acid] | 50 to 300 |
| Cc1cc(-c2cc(Cl)ccc2[C@@H](Oc2cc(N3CCC4(CC3)CN[C@H](C(=O)O)C4)nc(N)n2)C(F)(F)F)cc(C(C)(C)C)c1 [Example 34bm, (S)-8-(2-amino-6-((R)-1-(3′-(tert-butyl)-5-chloro-5′-methyl-[1,1′-biphenyl]-2-yl)-2,2,2-trifluoroethoxy)pyrimidin-4-yl)-2,8-diazaspiro[4.5]decane-3-carboxylic acid] | 50 to 300 |
